Data reported in patent US10611760B2, “Therapeutic compounds as inhibitors of the orexin-1 receptor” (C4X Discovery Limited, priority 2014, dated 2020).

How the values were obtained:
[1] = target: T1, hOX1R (Homo sapiens, UniProt O43613); test: Intracellular calcium measurements using division-arrested cells, OX1; type: cell-based; conditions: agonist orexin A at 2×EC50, * = single experiment, otherwise average of at least two, read-out: pIC50 OX1 (converted)
T1 sequence (O43613 1-425): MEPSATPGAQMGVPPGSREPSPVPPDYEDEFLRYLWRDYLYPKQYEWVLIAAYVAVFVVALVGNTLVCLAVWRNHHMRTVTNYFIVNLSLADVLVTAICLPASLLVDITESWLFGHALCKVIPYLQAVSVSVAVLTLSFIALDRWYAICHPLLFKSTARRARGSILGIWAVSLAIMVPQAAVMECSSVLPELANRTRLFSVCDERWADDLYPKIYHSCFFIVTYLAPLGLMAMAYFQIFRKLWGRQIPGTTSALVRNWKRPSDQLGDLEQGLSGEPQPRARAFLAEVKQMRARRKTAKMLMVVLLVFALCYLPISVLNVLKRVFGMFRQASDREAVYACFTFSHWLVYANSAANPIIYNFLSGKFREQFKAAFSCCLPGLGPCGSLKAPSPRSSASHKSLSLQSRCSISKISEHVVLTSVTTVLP
Experimental: (§1) Intracellular Calcium Measurements Using Division-arrested Cells (Table 1):
(§2) Test compounds are prepared as 10 mM stock solutions in DMSO, then serially diluted in half log concentrations with DMSO followed by dilution with assay buffer (HBSS (Sigma-Aldrich, H8264) containing 20 mM HEPES (Sigma-Aldrich, H4034), 0.1% (w/v) bovine serum albumin and adjusted to pH 7.4) to a top final assay concentration of 10 μM.
(§3) Human OX1 (CT-A474) and human OX2 (CT-A475) receptor-expressing division-arrested cells are plated into 384 well black, clear bottom, cell-bind plates at a seeding density of 10,000 cells/50 μL growth media. The seeded plates are incubated at 37° C. in air supplemented with 5% CO2 for 16 hrs.
(§4) The media is removed and replaced with 30 μL/well of cell loading buffer (a vial of Calcium 5 is solubilized in 22 mL of assay buffer to which a freshly prepared 250 mM solution of probenecid in 1:1 1M NaOH to assay buffer (200 μL) is added) and the cells incubated for 1 hr at 37° C. The serially diluted test compounds (10 μL/well) are added to the plate, which is then incubated for 10 mins and placed in a FlexStation III reader.

[2] = target: T2, hOX2R (Homo sapiens, UniProt O43614); test: Intracellular calcium measurements using division-arrested cells, OX2; type: cell-based; conditions: agonist orexin B at 2×EC50, * = single experiment, otherwise average of at least two, read-out: pIC50 OX2 (converted)
T2 sequence (O43614 1-444): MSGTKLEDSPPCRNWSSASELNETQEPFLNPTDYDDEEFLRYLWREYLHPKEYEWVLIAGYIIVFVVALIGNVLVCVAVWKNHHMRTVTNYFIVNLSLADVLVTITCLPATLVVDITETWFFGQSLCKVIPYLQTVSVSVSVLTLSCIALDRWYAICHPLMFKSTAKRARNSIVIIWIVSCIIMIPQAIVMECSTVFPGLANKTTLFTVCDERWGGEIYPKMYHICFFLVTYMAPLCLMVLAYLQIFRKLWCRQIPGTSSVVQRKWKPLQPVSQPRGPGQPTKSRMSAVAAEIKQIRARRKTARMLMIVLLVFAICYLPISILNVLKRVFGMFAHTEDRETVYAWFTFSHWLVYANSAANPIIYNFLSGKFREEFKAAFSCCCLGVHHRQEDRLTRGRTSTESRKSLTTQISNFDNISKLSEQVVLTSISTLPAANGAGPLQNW
Experimental: as §1, §2, §3, §4

IC50 [1] [nM] | IC50 [2] [nM] | SMILES
39.8 | 2000 | CC[C@@H](CNc1ccc(Cl)cn1)NC(=O)c1cc(C)ccc1-n1nccn1 [Example 2, (S)—N-(1-((5-chloropyridin-2-yl)amino)butan-2-yl)-5-methyl-2-(2H-1,2,3-triazol-2-yl)benzamide]
20 | 1000 | CC[C@@H](CNc1ccc(Cl)cn1)N(C)C(=O)c1ccccc1-c1ccccc1 [Example 3, (S)—N-(1-((5-chloropyridin-2-yl)amino)butan-2-yl)-N-methyl-[1,1′-biphenyl]-2-carboxamide]
158 | > 10000 | CC(C)[C@@H](CNc1ccc(Cl)cn1)NC(=O)c1ccccc1-c1ccccc1 [Example 4, (S)—N-(1-((5-chloropyridin-2-yl)amino)-3-methylbutan-2-yl)-[1,1′-biphenyl]-2-carboxamide]
1000 | > 10000 | CC(C)C[C@@H](CNc1ccc(Cl)cn1)NC(=O)c1ccccc1-c1ccccc1 [Example 5, (S)—N-(1-((5-chloropyridin-2-yl)amino)-4-methylpentan-2-yl)-[1,1′-biphenyl]-2-carboxamide]
1580 |  | Cc1nc(-c2ccccc2)c(C(=O)N[C@H](CNc2ccc(Cl)cn2)CC(C)C)s1 [Example 7, (S)—N-(1-((5-chloropyridin-2-yl)amino)-4-methylpentan-2-yl)-2-methyl-4-phenylthiazole-5-carboxamide]
794 | > 10000 | CC(C)C[C@@H](CNc1ccc(Cl)cn1)N(C)C(=O)c1ccccc1-c1ccccc1 [Example 8, (S)—N-(1-((5-chloropyridin-2-yl)amino)-4-methylpentan-2-yl)-N-methyl-[1,1′-biphenyl]-2-carboxamide]
79.4 | > 7940 | Cc1nc(-c2ccccc2)c(C(=O)N(C)[C@H](CNc2ccc(Cl)cn2)C(C)C)s1 [Example 11, (S)—N-(1-((5-chloropyridin-2-yl)amino)-3-methylbutan-2-yl)-N,2-dimethyl-4-phenylthiazole-5-carboxamide]
1000 | > 10000 | CN(C(=O)c1ccccc1-c1ccccc1)[C@H](CNc1ccc(Cl)cn1)C(C)(C)C [Example 12, (S)—N-(1-((5-chloropyridin-2-yl)amino)-3,3-dimethylbutan-2-yl)-N-methyl-[1,1′-biphenyl]-2-carboxamide]
39.8 | 2510 | CN(C(=O)c1ccccc1-c1ccccc1)[C@H](CNc1ccc(Cl)cn1)C1CC1 [Example 13, (S)—N-(2-((5-chloropyridin-2-yl)amino)-1-cyclopropylethyl)-N-methyl-[1,1′-biphenyl]-2-carboxamide]
 | > 10000 | CC(C)[C@@H](CNc1ccc(Cl)cn1)N(C(=O)c1ccccc1-c1ccccc1)C1CC1 [Example 15, (S)—N-(1-((5-chloropyridin-2-yl)amino)-3-methylbutan-2-yl)-N-cyclopropyl-[1,1′-biphenyl]-2-carboxamide]
12.6 | 1260 | CC[C@@H](CNc1ccc(Cl)cn1)N(C)C(=O)c1cc(Cl)ccc1-n1nccn1 [Example 16, (S)-5-chloro-N-(1-((5-chloropyridin-2-yl)amino)butan-2-yl)-N-methyl-2-(2H-1,2,3-triazol-2-yl)benzamide]
200 |  | CC[C@@H](CNc1ccc(Cl)cn1)N(C)C(=O)c1cc(C(F)(F)F)ccc1-n1nccn1 [Example 17, (S)—N-(1-((5-chloropyridin-2-yl)amino)butan-2-yl)-N-methyl-2-(2H-1,2,3-triazol-2-yl)-5-(trifluoromethyl)benzamide]
79.4 | > 10000 | CC[C@@H](CNc1ccc(Cl)cn1)N(C)C(=O)c1cc(F)ccc1-n1nccn1 [Example 18, (S)—N-(1-((5-chloropyridin-2-yl)amino)butan-2-yl)-5-fluoro-N-methyl-2-(2H-1,2,3-triazol-2-yl)benzamide]
7.94 |  | CC[C@@H](CNc1ccc(Cl)cn1)N(C)C(=O)c1nc(C)ccc1-n1nccn1 [Example 21, (S)—N-(1-((5-chloropyridin-2-yl)amino)butan-2-yl)-N,6-dimethyl-3-(2H-1,2,3-triazol-2-yl)picolinamide]
 | > 10000 | CC[C@@H](CNc1ccc(Cl)cn1)N(C)C(=O)c1cc(C)ccc1N1CCOCC1 [Example 22, (S)—N-(1-((5-chloropyridin-2-yl)amino)butan-2-yl)-N,5-dimethyl-2-morpholinobenzamide]
25.1 | 2510 | CC[C@@H](CNc1ccc(Cl)cn1)N(C)C(=O)c1cc(N(C)C)ccc1-n1nccn1 [Example 23, (S)—N-(1-((5-chloropyridin-2-yl)amino)butan-2-yl)-5-(dimethylamino)-N-methyl-2-(2H-1,2,3-triazol-2-yl)benzamide]
631 | > 10000 | CC[C@@H](CNc1ccc(Cl)cn1)NC(=O)c1cc(Cl)ccc1-n1nccn1 [Example 25, (S)-5-chloro-N-(1-((5-chloropyridin-2-yl)amino)butan-2-yl)-2-(2H-1,2,3-triazol-2-yl)benzamide]
1580 |  | CC(C)[C@@H](COCc1ccc(F)cc1)N(C)C(=O)c1ccccc1-c1ccccc1 [Example 29, (S)—N-(1-((4-fluorobenzyl)oxy)-3-methylbutan-2-yl)-N-methyl-[1,1′-biphenyl]-2-carboxamide]
200 |  | CC(C)[C@@H](COc1ncc2ccccc2n1)N(C)C(=O)c1ccccc1-c1ccccc1 [Example 31, (S)—N-methyl-N-(3-methyl-1-(quinazolin-2-yloxy)butan-2-yl)-[1,1′-biphenyl]-2-carboxamide]
200 |  | CC(C)[C@@H](COc1nccc(-c2ccccc2)n1)N(C)C(=O)c1ccccc1-c1ccccc1 [Example 32, (S)—N-methyl-N-(3-methyl-1-((4-phenylpyrimidin-2-yl)oxy)butan-2-yl)-[1,1′-biphenyl]-2-carboxamide]
100 |  | CC(C)[C@@H](COc1nc2ccccc2n1C)N(C)C(=O)c1ccccc1-c1ccccc1 [Example 33, (S)—N-methyl-N-(3-methyl-1-((1-methyl-1H-benzo[d]imidazol-2-yl)oxy)butan-2-yl)-[1,1′-biphenyl]-2-carboxamide]
63.1 |  | CC(C)[C@@H](CNc1ncc2ccccc2n1)N(C)C(=O)c1ccccc1-c1ccccc1 [Example 36, (S)—N-methyl-N-(3-methyl-1-(quinazolin-2-ylamino)butan-2-yl)-[1,1′-biphenyl]-2-carboxamide]
79.4 |  | Cc1cc(C)nc(NC[C@H](C(C)C)N(C)C(=O)c2ccccc2-c2ccccc2)n1 [Example 37, (S)—N-(1-((4,6-dimethylpyrimidin-2-yl)amino)-3-methylbutan-2-yl)-N-methyl-[1,1′-biphenyl]-2-carboxamide]
 | 1000 | CC[C@@H](CNc1ccc(C(F)(F)F)cn1)N(C)C(=O)c1cc(Cl)ccc1-n1nccn1 [Example 42, (S)-5-chloro-N-methyl-2-(2H-1,2,3-triazol-2-yl)-N-(1-((5-(trifluoromethyl)pyridin-2-yl)amino)butan-2-yl)benzamide]
631 |  | CC(C)[C@@H](CNc1ccc(Cl)cn1)N(C)C(=O)c1cn(C)c2ccccc12 [Example 50, (S)—N-(1-((5-chloropyridin-2-yl)amino)-3-methylbutan-2-yl)-N,1-dimethyl-1H-indole-3-carboxamide]
251 |  | CC[C@@H](CNc1cccc(C)n1)N(C)C(=O)c1cc(Cl)ccc1-n1nccn1 [Example 53, (S)-5-chloro-N-methyl-N-(1-((6-methylpyridin-2-yl)amino)butan-2-yl)-2-(2H-1,2,3-triazol-2-yl)benzamide]
79.4 |  | CC[C@@H](CNc1ccc(C(F)(F)F)nc1)N(C)C(=O)c1nc(C)ccc1-n1nccn1 [Example 55, (S)—N,6-dimethyl-3-(2H-1,2,3-triazol-2-yl)-N-(1-((6-(trifluoromethyl)pyridin-3-yl)amino)butan-2-yl)picolinamide]
